Data: patent publication US20190352276A1, “INHIBITORS OF BRUTON'S TYROSINE KINASE” (Joint Stock Company "Biocad", priority 2016, published 2019)
Read-outs that look alike come from different tables or passages of the source.

What was measured:
[1] = human, microsomes
Protocol: 2) Metabolic Stability in Human Liver Microsomes
The rate of enzymatic decomposition of a compound was detected by incubating the reaction mixture in a dry block heater at 37° C.; the reaction mixture contained 0.5 mg/mL of pooled human liver microsomes (XenoTech, USA, cat# H6010), 10 mM of a drug candidate, 2 mM β-nicotinamide adenine dinucleotide (Carbosynth, UK, cat#NN10871) and 4 mM of magnesium chloride in 0.1M sodium phosphate buffer pH=7.4. The reaction was terminated by adding 100 μL of acetonitrile for each 100 μL of the reaction mixture. After the reaction was terminated, the samples were centrifuged for 10 min at 10000 rpm. The supernatant was chromatographed using Agilent 1200 chromatograph (Agilent, USA). We used gradient elution (1 mL/min flow rate). We plotted a calibration curve of the logarithm of the peak area vs. time. The gradient of the line corresponded to the elimination rate constant k. Based on the constant, determined using the curve, we calculated the drug's half-life (T1/2) and metabolism rate (CLint).

[2] = target: T1, recombinant Btk kinase enzyme (Homo sapiens, UniProt Q06187); test: In vitro inhibition of Btk kinase activity (ADP-Glo); format: biochemical; conditions: read-out: IC50 kinase BTK
T1 construct: purchased SignalChem B10-10H
T1 sequence (Q06187 whole entry): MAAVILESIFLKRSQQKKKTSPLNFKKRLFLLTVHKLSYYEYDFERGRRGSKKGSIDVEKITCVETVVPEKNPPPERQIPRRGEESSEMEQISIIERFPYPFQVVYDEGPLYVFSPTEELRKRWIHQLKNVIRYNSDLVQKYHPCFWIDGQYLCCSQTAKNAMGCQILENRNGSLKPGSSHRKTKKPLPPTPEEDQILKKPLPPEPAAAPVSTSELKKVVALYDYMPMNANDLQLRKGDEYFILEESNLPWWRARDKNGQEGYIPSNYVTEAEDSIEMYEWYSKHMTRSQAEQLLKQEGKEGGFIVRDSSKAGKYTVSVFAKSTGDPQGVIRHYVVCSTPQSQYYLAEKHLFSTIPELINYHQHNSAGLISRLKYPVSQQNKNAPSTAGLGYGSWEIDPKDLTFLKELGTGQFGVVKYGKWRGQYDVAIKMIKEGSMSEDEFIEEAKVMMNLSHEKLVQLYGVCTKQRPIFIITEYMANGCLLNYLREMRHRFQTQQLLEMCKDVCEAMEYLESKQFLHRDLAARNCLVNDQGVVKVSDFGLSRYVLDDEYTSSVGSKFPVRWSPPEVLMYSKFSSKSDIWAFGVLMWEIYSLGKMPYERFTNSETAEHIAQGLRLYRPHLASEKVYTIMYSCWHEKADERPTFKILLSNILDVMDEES
Procedure, shortened: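 Recombinant human Btk phosphorylating Poly(Glu,Tyr 4:1) substrate (0.5 mg/mL) with 50 μM ATP, 180 min at 37° C., in presence of inhibitor. ADP formed detected by ADP-Glo luminescence; IC50 from four-parameter logistic fit.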

EGFR = target: T2, EGFR (Homo sapiens, UniProt P00533); test: In vitro kinase panel: EGFR; format: biochemical; conditions: Table 9 kinase panel
T2 construct: purchased SignalChem E10-11G
T2 sequence (P00533 672-1210 limits assumed): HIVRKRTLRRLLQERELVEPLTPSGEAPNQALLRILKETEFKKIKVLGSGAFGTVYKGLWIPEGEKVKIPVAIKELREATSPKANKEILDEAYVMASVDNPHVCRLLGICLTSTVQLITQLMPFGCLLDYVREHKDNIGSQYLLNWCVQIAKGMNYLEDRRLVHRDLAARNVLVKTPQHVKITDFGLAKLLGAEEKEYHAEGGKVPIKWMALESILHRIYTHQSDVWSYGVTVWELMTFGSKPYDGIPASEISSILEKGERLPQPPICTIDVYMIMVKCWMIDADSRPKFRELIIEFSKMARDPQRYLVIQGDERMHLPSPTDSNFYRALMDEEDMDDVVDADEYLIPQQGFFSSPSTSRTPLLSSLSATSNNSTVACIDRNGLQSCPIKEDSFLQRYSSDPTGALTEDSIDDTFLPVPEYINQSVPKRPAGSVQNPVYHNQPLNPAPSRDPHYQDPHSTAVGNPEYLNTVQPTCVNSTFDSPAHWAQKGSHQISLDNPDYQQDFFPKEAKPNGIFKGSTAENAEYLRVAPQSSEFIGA
Protocol: The measurements were carried out in a 25 μL reaction volume using a 96-well plate (Corning, #3642). The kinase enzyme and inhibitor were pre-incubated for 10 minutes in the reaction buffer containing 25 mM of MOPS (pH 7.2), 12.5 mM of 0-glycerophosphate, 27 mM of MgCl2, 2 mM of MnCl2, 5 mM of EGTA, 2 mM of EDTA, 0.3 mM of DTT, and 1.2 mg/mL of bovine serum albumin. Staurosporine (Abcam Biochemicals, ab146588) was used as a reference inhibitor and 0.1% DMSO in the reaction buffer—as a negative control. The solution of 0.5 mg/mL peptide substrate and 50 &M ATP in the same buffer were added; the solution was incubated for 180 minutes at 37° C. To detect the amount of ATP taken up during the kinase reaction, the equivalent amount of ADP (from the ADP Glo Detection Kit (Promega, #V9101)) was used according to the protocol. The reaction mixture was equilibrated to room temperature. 25 µL of ADP-Glo Reagent were added into each well; the plate was incubated for 40 minutes. 50 μL of Kinase Detection Reagent were added; the plate was incubated for 30 minutes. The luminescence was measured with multimode plate reader (Tecan Infinite M200Pro, Switzerland). IC50 values were calculated using Magellan 7.2 software (Tecan, Switzerland) approximating experimental points by four-parameter logistic model with the optimization by Levenberg-Marquardt.
For active compounds selected by screening using the target enzyme BTK, the values of IC50 were determined on a kinase panel: EGFR (SignalChem, #E10-11G), ITK (SignalChem, #I13-10G) and TEC (SignalChem, #T03-10G).

[3] = test system: Z-138 (mantle cell lymphoma); test: Antiproliferative activity, Z-138 cells (Alamar Blue); format: cell-based; conditions: Homo sapiens
Procedure, shortened: (§1)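 Cells (~3*10^4 per well) in RPMI-1640 with 10% FBS and gentamicin were exposed to diluted compounds (DMSO <1%) for 72 h at 37 °C, 5% CO2. Alamar Blue was then added for 14-16 h, and fluorescence was read at Ex 540/Em 590 nm. IC50 came from a four-parameter logistic fit.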

[4] = test system: HepG2 cells (hepatocellular carcinoma); test: General cytotoxicity on HepG2 cells (CC50; therapeutic index CC50 HepG2/IC50 Mino); format: cell-based; conditions: therapeutic index
Procedure, shortened: (§2)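 Cells seeded at 2*10^4 per well in DMEM, compounds added after 24 h at 200 μM to 4 μM final and incubated 72 h. Viability read with Alamar Blue to derive CC50; therapeutic index is CC50 (HepG2) divided by IC50 (Mino).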

[5] = as above; format: cell-based; conditions: human, HepG2 cells (hepatocellular carcinoma), 72 hours, Alamar Blue
Procedure, shortened: as §2

[6] = test system: Mino (mantle cell lymphoma); test: Antiproliferative activity, Mino cells (Alamar Blue); format: cell-based; conditions: Homo sapiens
Procedure, shortened: as §1

[7] = Permeability through the monolayer of Caco-2 cells; format: in vitro ADME; conditions: human; for Papp A→B at 2 h, 10 μM / Papp B→A at 2 h, 10 μM: 2 h at 37° C.; for efflux ratio at 2 h, 10 μM: read-out: efflux (Papp B-A/Papp A-B)
Procedure, shortened: (§3)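 Caco-2 monolayers grown 21 days on 0.4 μm transwell filters, integrity checked with Lucifer Yellow. Compounds at 10 μM were added apically at pH 6.5 (A→B) or basolaterally at pH 7.4 with 1% BSA (B→A) and sampled after 2 h. Concentrations by HPLC; Papp calculated, efflux ratio as Papp B-A/Papp A-B.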

Caco-2 cells = test: Permeability through the monolayer of Caco-2 cells; format: in vitro ADME
Procedure, shortened: as §3

[8] = test system: DOHH2 (follicular lymphoma); test: Antiproliferative activity, DOHH2 cells (Alamar Blue); format: cell-based; conditions: Homo sapiens, DOHH-2, Table 10, 72 h, average of several tests
Procedure, shortened: as §1

[9] = Chemical stability in artificial gastric fluid (SGF without enzymes); conditions: 10 μM in SGF without enzymes, pH=1.4, 37° C.
[10] = Stability in human blood plasma; conditions: 10 μM in pooled human blood plasma, incubated 4 hours at 37° C.
Protocol: To assess the blood plasma stability of the drug candidates, we used pooled human blood plasma taken from ten healthy donors. The initial solution (10 Mm in DMSO) was diluted with pooled blood plasma to 10 μM (test solution). The test solution had been incubated for 4 hours in a dry block heater at 37° C. We determined peak areas of the compounds corresponding to the start of the test (before incubating) and the end of the test (after incubating in a dry block heater at 37° C.) by HPLC using Agilent1200 chromatograph (Agilent, USA) with preliminary protein precipitation with acetonitrile. We used gradient elution (1 mL/min flow rate). We determined amount of substance in the sample in % after incubation.
We evaluated the stability of the compounds.

[11] = Table 10, 72 h, average of several tests
[12] = Table 10, average of several tests

## C=CC(=O)N1CCC[C@@H](n2nc(-c3ccc(Oc4ccncc4)cc3)c3c(N)nccc32)C1 [BCD-BTK -241, (R)-1-(1-acryloylpiperidin-3-yl)-4-amine-3-(4-(pyridin-4-yloxy)phenyl)-1H-pyrazolo[4,3-c]pyridine]
[1]
  Clint (microsome metabolic stability): 27.4 µL/min/mg

## C=CC(=O)N1CCC[C@@H](n2nc(-c3ccc(Oc4ccncc4)cc3)c3c(N)ncc(C#N)c32)C1 [BCD-BTK-134, (R)-1-(1-acryloylpiperidin-3-yl)-4-amino-3-(4-(pyridin-4-yloxy)phenyl)-1H-pyrazolo[4,3-c]pyridin-7-carbonitrile]
[2]; Table 9 kinase panel
  IC50: 0.00116 µM
EGFR
  IC50: 0.127 µM
[3]; Table 11, 72 h
  IC50: 21.2 µM
[4]; Table 11
  CC50 (HepG2)/IC50 (Mino): 5.80
[5]; Table 11
  CC50 at 72 h: 64 µM
[6]; Table 11, 72 h
  IC50: 11.6 µM
[7]
  Papp A→B at 2 h, 10 μM: 25.8 ×10⁻⁶ cm/s
  Papp B→A at 2 h, 10 μM: 12 ×10⁻⁶ cm/s
  efflux ratio at 2 h, 10 μM: 0.4

## C=CC(=O)N1CCC[C@@H](n2nc(-c3ccc(C(=O)Nc4cc(C(F)(F)F)ccn4)cc3)c3cncc(Cl)c32)C1 [BCD-BTK-210, (R)-4-(1-(1-acryloylpiperidin-3-yl)-7-chloro-1H-pyrazolo[4,3-c]pyridin-3-yl)-N-(4-(trifluoromethyl)pyridin-2-yl)benzamide]
Caco-2 cells
  efflux (Papp B-A/Papp A-B): 0.02
[7]
  Papp A→B at 2 h, 10 μM: 11.9 ×10⁻⁶ cm/s
  Papp B→A at 2 h, 10 μM: 0.21 ×10⁻⁶ cm/s

## C=CC(=O)N1CCC[C@@H](n2nc(-c3ccc(C(=O)Nc4cc(C(F)(F)CC)ccn4)cc3)c3cncc(F)c32)C1 [BCD-BTK-214, (R)-4-(1-(1-acryloylpiperidin-3-yl)-7-fluoro-1H-pyrazolo[4,3-c]pyridin-3-yl)-N-(4-(1,1-difluoropropyl)pyridin-2-yl)benzamide]
[2]; Table 8, ADP-Glo
  IC50: 0.0343 µM
[8]
  IC50: > 100 µM
[3]; [11]
  IC50: 89.4 µM
[4]; Table 10
  CC50 (HepG2)/IC50 (Mino): >77.94
[5]; [12]
  CC50 at 72 h: > 100 µM
[6]; [11]
  IC50: 1.28 µM
Caco-2 cells
  efflux (Papp B-A/Papp A-B): 0.05
[7]
  Papp A→B at 2 h, 10 μM: 17.8 ×10⁻⁶ cm/s
  Papp B→A at 2 h, 10 μM: 0.87 ×10⁻⁶ cm/s

## C=CC(=O)N1CCC[C@@H](n2nc(-c3ccc(C(=O)Nc4cccc(F)n4)cc3)c3cncc(C#N)c32)C1 [BCD-BTK-223, 4-{7-cyano-1-[(3R)-1-(prop-2-enoyl)piperidin-3-yl]-1H-pyrazolo[4,3-c]pyridin-3-yl}-N-(6-fluoropyridin-2-yl)benzamide]
[9]
  Amount of substance in the sample in % (chemical stability): 96.7%
Caco-2 cells
  efflux (Papp B-A/Papp A-B): 0.05
[7]
  Papp A→B at 2 h, 10 μM: 5.9 ×10⁻⁶ cm/s
  Papp B→A at 2 h, 10 μM: 0.3 ×10⁻⁶ cm/s

## C=CC(=O)N1CCC[C@@H](n2nc(-c3cnc(C(=O)Nc4ccccn4)nc3)c3cncc(Cl)c32)C1 [BCD-BTK-229, (R)-5-(1-(1-acryloylpiperidin-3-yl)-7-chloro-1H-pyrazolo[4,3-c]pyridin-3-yl)-N-(pyridin-2-yl)pyrimidine-2-carboxamide]
[2]; Table 8, ADP-Glo
  IC50: 0.0439 µM
[8]
  IC50: 41.2 µM
[10]
  Amount of substance in the sample, % (stability in human blood plasma): 83.5%
[9]
  Amount of substance in the sample in % (chemical stability): 99.8%
[3]; [11]
  IC50: 77.1 µM
[4]; Table 10
  CC50 (HepG2)/IC50 (Mino): >2.75
[5]; [12]
  CC50 at 72 h: > 100 µM
[6]; [11]
  IC50: 36.3 µM
[7]
  Papp A→B at 2 h, 10 μM: 10.7 ×10⁻⁶ cm/s
  Papp B→A at 2 h, 10 μM: 12.2 ×10⁻⁶ cm/s
  efflux ratio at 2 h, 10 μM: 1.14

## C=CC(=O)N1CCC[C@@H](n2nc(-c3ccc(Oc4cccnc4C#N)cc3)c3c(N)ncc(Cl)c32)C1 [BCD-BTK-236, 3-(4-{4-amino-7-chloro-1-[(3R)-1-(prop-2-enoyl)piperidin-3-yl]-1H-pyrazolo[4,3-c]pyridin-3-yl}phenoxy) pyridine-2-carbonitrile]
[2]; Table 8, ADP-Glo
  IC50: 0.0174 µM
[8]
  IC50: 3.79 µM
[10]
  Amount of substance in the sample, % (stability in human blood plasma): 96.8%
[9]
  Amount of substance in the sample in % (chemical stability): 100%
[3]; [11]
  IC50: 11.1 µM
[4]; Table 10
  CC50 (HepG2)/IC50 (Mino): 3.03
[5]; [12]
  CC50 at 72 h: 27.1 µM
[6]; [11]
  IC50: 8.93 µM
[7]
  Papp A→B at 2 h, 10 μM: 6.51 ×10⁻⁶ cm/s
  Papp B→A at 2 h, 10 μM: 2.87 ×10⁻⁶ cm/s
  efflux ratio at 2 h, 10 μM: 0.44

## C=CC(=O)N1CCC[C@@H](n2nc(-c3ccc(Oc4ccncc4)cc3)c3c(N)nccc32)C1 [BCD-BTK-241, (R)-1-(1-acryloylpiperidin-3-yl)-4-amine-3-(4-(pyridin-4-yloxy)phenyl)-1H-pyrazolo[4,3-c]pyridine]
[2]; Table 8, ADP-Glo
  IC50: 0.01 µM
[8]
  IC50: 11.5 µM
EGFR
  IC50: 0.0252 µM
[3]; [11]
  IC50: 15.5 µM
[4]; Table 10
  CC50 (HepG2)/IC50 (Mino): 2.13
[5]; [12]
  CC50 at 72 h: 45.4 µM
[6]; [11]
  IC50: 21.3 µM

## C=CC(=O)N1CC[C@H](n2nc(-c3ccc(Oc4ccncc4)cc3)c3cncc(Cl)c32)C1 [BCD-BTK-266, (S)-1-(3-(7-chloro-3-(4-(pyridin-4-yloxy)phenyl)-1H-pyrazolo[4,3-c]pyridin-1-yl)pyrrolidin-1-yl)prop-2-en-1-one]
[2]; Table 8, ADP-Glo
  IC50: 0.0132 µM
[8]
  IC50: 4.99 µM
[10]
  Amount of substance in the sample, % (stability in human blood plasma): 87.2%
[9]
  Amount of substance in the sample in % (chemical stability): 100%
[3]; [11]
  IC50: 12.6 µM
[4]; Table 10
  CC50 (HepG2)/IC50 (Mino): 3.33
[5]; [12]
  CC50 at 72 h: 12 µM
[6]; [11]
  IC50: 3.61 µM
[7]
  Papp A→B at 2 h, 10 μM: 9.5 ×10⁻⁶ cm/s
  Papp B→A at 2 h, 10 μM: 2.2 ×10⁻⁶ cm/s
  efflux ratio at 2 h, 10 μM: 0.23

## C=CC(=O)N1CCC[C@@H](n2nc(-c3cnc(C(=O)Nc4cc(C(F)(F)CC)ccn4)nc3)c3cncc(Cl)c32)C1 [BCD-BTK-293, (R)-5-(1-(1-acryloylpiperidin-3-yl)-7-chloro-1H-pyrazolo[4,3-c]pyridin-3-yl)-N-(4-(1,1-difluoropropyl)pyridin-2-yl)pyrimidine-2-carboxamide]
[8]
  IC50: > 100 µM
[3]; [11]
  IC50: > 50 µM
[4]; Table 10
  CC50 (HepG2)/IC50 (Mino): >23.23
[5]; [12]
  CC50 at 72 h: > 100 µM
[6]; [11]
  IC50: 4.3 µM
Caco-2 cells
  efflux (Papp B-A/Papp A-B): 0.06
[7]
  Papp A→B at 2 h, 10 μM: 6.17 ×10⁻⁶ cm/s
  Papp B→A at 2 h, 10 μM: 0.37 ×10⁻⁶ cm/s
